This note sets out measurements from PubChem BioAssay (NCI).

SMILES strings stand for the structures.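 Cells were grown in 96-well plates and exposed to each compound for 48 hours at five concentrations; endpoints were interpolated linearly between bracketing concentrations, or set to the highest concentration if not reached. Definition used: TGI = concentration required for complete inhibition of growth.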

Some test systems named below: SK-MEL-28 melanoma; OVCAR-4 ovarian; SNB-75 CNS; OVCAR-5 ovarian; HCC-2998 colon; UACC-62 melanoma; MDA-MB-231 breast; K-562 leukemia; LOX IMVI melanoma; HL-60(TB) leukemia.
Holding throughout (experiment): DTP human tumour cell line panel, 48 h

Consider `CCC(=O)Oc1c2ccsc2c(OC(=O)CC)c2ccsc12`, for which the TGI worked out at 0.353 µM in the test with SK-MEL-28 melanoma; 2.39 µM in the test with OVCAR-4 ovarian; 0.341 µM in the test on SNB-75 CNS; 3.35 µM in the test on OVCAR-5 ovarian; 3.49 µM in the test on HCC-2998 colon; 0.439 µM in the test with UACC-62 melanoma. This compound also gave a TGI with MDA-MB-231 breast of 1.27 µM.

With `O=[N+]([O-])c1ccc(NC(=S)N=Nc2c(O)[nH]c3ccc(Br)cc23)cc1`, the TGI was 33.5 µM with SK-MEL-28 melanoma; over 100 µM with K-562 leukemia; 22.4 µM in the test with LOX IMVI melanoma; 21.1 µM with OVCAR-4 ovarian; 30.7 µM in the test with SNB-75 CNS; 28.3 µM with OVCAR-5 ovarian. Also, the TGI is 7.09 µM with HL-60(TB) leukemia, 18.3 µM in the test with UACC-62 melanoma and 32 µM with MDA-MB-231 breast.

With `CC1(C)CNC(=O)C2(C=NC(C)(C)CNC(=O)C3(C=N1)CCCO3)CCCO2` (centres undefined), the TGI with SK-MEL-28 melanoma, in the test with K-562 leukemia, in the test on OVCAR-4 ovarian, with SNB-75 CNS, in the test with HCC-2998 colon and in the test with HL-60(TB) leukemia was over 10 µM each time. For the same compound, the TGI in the test with UACC-62 melanoma and in the test on MDA-MB-231 breast was over 10 µM in each case.

As for `CNC(=O)N(CCC#N)[C@H]1CCCC[C@@H]1N(C(=O)NC)c1ccccc1`, the TGI in the test on SK-MEL-28 melanoma, with K-562 leukemia, in the test with LOX IMVI melanoma, in the test on OVCAR-4 ovarian, in the test on SNB-75 CNS and with OVCAR-5 ovarian was over 100 µM each time. In addition, the concentration for total growth inhibition (TGI) in the test with HCC-2998 colon, in the test on UACC-62 melanoma and in the test on MDA-MB-231 breast was over 100 µM each time.

As for `N#Cc1cc2c(cc1Cl)Sc1nccn1S2(=O)=O`, the TGI was 7.33 µM in the test on SK-MEL-28 melanoma; 17.2 µM in the test with K-562 leukemia; 3.19 µM in the test with LOX IMVI melanoma; 22.1 µM in the test on OVCAR-4 ovarian; 20.4 µM in the test on SNB-75 CNS; 27.4 µM with OVCAR-5 ovarian. Also, the TGI in the test with HL-60(TB) leukemia is 16.6 µM; in the test with UACC-62 melanoma it was 7.32 µM; in the test on MDA-MB-231 breast, 12.4 µM.

Take `CCOc1cc(-c2nc3ccccn3c2/N=C/c2cc(Br)ccc2O)ccc1O`: the TGI in the test on SK-MEL-28 melanoma is over 100 µM; in the test on K-562 leukemia it was over 100 µM; in the test on LOX IMVI melanoma, over 100 µM; in the test with OVCAR-4 ovarian it was 38.7 µM; with SNB-75 CNS it was 31.3 µM; in the test on OVCAR-5 ovarian it was over 100 µM. In addition, the TGI with HL-60(TB) leukemia is over 100 µM; in the test on UACC-62 melanoma, 57 µM; in the test on MDA-MB-231 breast, over 100 µM.

On to `CC(=O)OC/C=C(/C=C/CNC1CCCCC1)OC(C)=O`, for which the TGI amounted to 30.9 µM in the test on SK-MEL-28 melanoma; 32 µM in the test with K-562 leukemia; 37.5 µM in the test with LOX IMVI melanoma; 35.7 µM in the test with OVCAR-4 ovarian; 93.6 µM in the test on SNB-75 CNS; 29.9 µM with OVCAR-5 ovarian. The results for the TGI with HCC-2998 colon, in the test on UACC-62 melanoma and in the test with MDA-MB-231 breast were 40.3 µM, 33.2 µM and 27.9 µM, respectively.

With `COCC1OC(N2C(=O)NC(=O)[C@@H]3C=C4CCCCC4=C[C@@H]32)C(OC)C1OC` (some centres undefined), the TGI with SK-MEL-28 melanoma, with K-562 leukemia, in the test with LOX IMVI melanoma, in the test on OVCAR-4 ovarian, in the test with SNB-75 CNS and with OVCAR-5 ovarian was over 100 µM throughout. Besides, the TGI in the test with HL-60(TB) leukemia, in the test on UACC-62 melanoma and with MDA-MB-231 breast was over 100 µM in each case.

As for `CC1(C(=O)O)CCCC1C(=O)O` (centres undefined), the total growth inhibition concentration (TGI) with SK-MEL-28 melanoma, with K-562 leukemia, in the test on LOX IMVI melanoma, with OVCAR-4 ovarian, in the test with OVCAR-5 ovarian and with HL-60(TB) leukemia was over 100 µM each time. In addition, the TGI with UACC-62 melanoma and in the test with MDA-MB-231 breast was over 100 µM in each case.

With `COCc1nc2c(OC)cc(-c3nc4ccc(N5CCN(C)CC5)cc4[nH]3)c(OC)c2[nH]1`, the TGI with SK-MEL-28 melanoma is over 100 µM; with K-562 leukemia, over 100 µM; with LOX IMVI melanoma, 34.8 µM; with OVCAR-4 ovarian, over 100 µM; in the test with SNB-75 CNS, over 100 µM; in the test with OVCAR-5 ovarian, over 100 µM. In addition, the TGI in the test on HL-60(TB) leukemia, with UACC-62 melanoma and with MDA-MB-231 breast was over 100 µM each time.

As to `CC(C)(C)c1cc(/C=C(\C#N)C(=O)NCCO)cc(C(C)(C)C)c1O`, the TGI in the test with SK-MEL-28 melanoma was 47.1 µM; in the test with K-562 leukemia it was 86.7 µM; in the test on LOX IMVI melanoma, 53.9 µM; in the test on OVCAR-4 ovarian, 76.5 µM; in the test on SNB-75 CNS, 72.4 µM; in the test on OVCAR-5 ovarian, 62.8 µM. In addition, the TGI is 36.9 µM with HL-60(TB) leukemia, 27.5 µM in the test on UACC-62 melanoma and 43.9 µM with MDA-MB-231 breast.

On to `CC1S/C(=N/c2nnc(-c3ccccc3)o2)NC1=O` (centres undefined), for which the TGI in the test on SK-MEL-28 melanoma, with K-562 leukemia, with LOX IMVI melanoma, with OVCAR-4 ovarian, in the test on OVCAR-5 ovarian and in the test on HL-60(TB) leukemia was over 100 µM in each case. In addition, the TGI in the test with UACC-62 melanoma and in the test on MDA-MB-231 breast was over 100 µM throughout.

`C=C1CC(C)(c2ccc(Nc3nc4ccccc4c4occc34)cc2)OC1=O` (centres undefined): the TGI in the test on SK-MEL-28 melanoma was 27.4 µM; in the test with K-562 leukemia, over 100 µM; in the test on OVCAR-4 ovarian it was 7.73 µM; in the test on SNB-75 CNS it was 6.56 µM; with OVCAR-5 ovarian it was 30.6 µM; in the test with HCC-2998 colon it was 5.63 µM. The figures for the TGI in the test with HL-60(TB) leukemia and in the test with MDA-MB-231 breast were 6.34 µM and 6.35 µM, respectively.

As to `FC(F)(F)c1ccc2nc3n(c2c1)C(c1c(Cl)cccc1Cl)SC3` (centres undefined), the TGI in the test with SK-MEL-28 melanoma is 29.5 µM; in the test with LOX IMVI melanoma, over 100 µM; with OVCAR-4 ovarian, 30.5 µM; in the test on SNB-75 CNS, 25.8 µM; with OVCAR-5 ovarian, 30.4 µM; in the test on HCC-2998 colon it was 35 µM. Also, the figures for the TGI in the test on HL-60(TB) leukemia, in the test with UACC-62 melanoma and in the test with MDA-MB-231 breast were 33.2 µM, 28.6 µM and 37.7 µM, respectively.

Take `COC(=O)c1ccc(C=Nc2ccc(S(N)(=O)=O)cc2)cc1`: the TGI with SK-MEL-28 melanoma, with LOX IMVI melanoma, with OVCAR-4 ovarian, with SNB-75 CNS, with OVCAR-5 ovarian and in the test with HCC-2998 colon was over 100 µM each time. Besides, the TGI in the test with HL-60(TB) leukemia, in the test on UACC-62 melanoma and in the test on MDA-MB-231 breast was over 100 µM in each case.
